What all share (assay type): cell-based, human
The subject of assay [1] is SS RBC membrane ghost phosphopeptides. Kind of assay: Label-free quantitative phosphoproteomic analysis of SS RBC membrane ghosts. The method, then: (§1) Ghosted RBCs were spun at 14,000 rpm for 15 min at 4° C. to pellet membranes. Membrane pellets were washed with 1 mL 50 mM ammonium bicarbonate (pH 8.0) with vortexing and were then spun at 14,000 rpm for 30 min at 4° C. The supernatant was then removed and 500 μL of 50 mM ammonium bicarbonate with μL 0.2% acid-labile surfactant (ALS-1) in 50 mM ammonium bicarbonate (pH 8.0) was added. Samples were subjected to probe sonication three-times for 5 sec with cooling on ice between and insoluble material was cleared by centrifugation at 14,000 rpm for 30 mins at 4° C. Samples were normalized to approximately 2 μg/μl following a micro-Bradford assay (Pierce Bioscience), and were reduced with a final concentration of 10 mM dithiothreitol at 80° C. for 20 min. Samples were then alkylated with a final concentration of 20 mM iodoacetamide at room temperature for 45 min and trypsin was added to a final ratio of 1-to-50 (w/w) enzyme-to-protein and allowed to digest at 37° C. for 18 hr. To remove ALS-1, samples were acidified to pH 2.0 with neat TFA, incubated at 60° C. for 2 hrs and spun at 14,000 rpm to remove hydrolyzed ALS-1. Samples were either subjected directly to LC-MS analysis or subjected to a TiO2 based phosphopeptide enriched protocol.
(§2) To enrich for phosphorylated peptides prior to LC-MS analysis, either 1,125 μg and 970 μg of total digested protein from RBC ghosts co-incubated with recombinant active ERK2 experiments and experiments using epinephrine-treated cells, respectively, were brought to near dryness using vacuum centrifugation and then resuspended in 200 μL of 80% acetonitrile, 1% TFA, 50 mg/ml MassPrep Enhancer (pH 2.5) (Waters Corp. Milford, Mass.). Samples were loaded onto an in-house packed TiO2 spin column (Protea Biosciences) with a 562 μg or 485 μg binding capacity for active ERK2 treated or epinephrine treated experiments, respectively. Samples were washed twice with 200 μL 80% acetonitrile, 1% TFA, 50 mg/ml MassPrep Enhancer (pH 2.5) followed by two washes with 200 μL 80% acetonitrile, 1% TFA (pH 2.5). Retained peptides were eluted twice with 100 μL 20% acetonitrile, 5% aqueous ammonia (pH 10.0), acidified to pH 3 with neat formic acid and then brought to dryness using vacuum centrifugation. Prior to LC-MS analysis, each sample was resuspended in 20 μL 2% acetonitrile, 0.1% TFA, 25 mM citric acid (pH 2.5).
Chromatographic separation of phosphopeptide enriched or non-enriched samples was performed on a Waters NanoAquity UPLC equipped with a 1.7 μm BEH130 C1875 μm I.D.×250 mm reversed-phase column. The mobile phase consisted of (A) 0.1% formic acid in water and (B) 0.1% formic acid in acetonitrile. Five μL injections of each sample were trapped for 5 min on a 5 μm Symmetry C18 180 μm I.D.×20 mm column at 20 μl/min in 99.9% A. The analytical column was then switched in-line and the mobile phase was held for 5 min at 5% B before applying a linear elution gradient of 5% B to 40% B or 5% B to 30% B over 90 min at 300 nL/min for ERK2 treated experiments or epinephrine treated experiments, respectively. The analytical column was connected to fused silica PicoTip emitter (New Objective, Cambridge, Mass.) with a 10 μm tip orifice and coupled to the mass spectrometer through an electrospray interface.
MS data from each phosphopeptide enriched sample was acquired on a Thermo LTQ-Orbitrap XL mass spectrometer operating in positive-ion mode with an electrospray voltage of 2.0 kV with real-time lockmass correction on ambiant polycyclodimethylsiloxane (m/z 445.120025) enabled. The instrument was set to acquire a precursor MS scan from m/z 400-2000 with r=60,000 at m/z 400 and a target AGC setting of 1e6 ions. Each sample was analyzed four-times, one of which was used for additional qualitative identifications only and was not included in the quantitative analysis, with product ions above a threshold of 500 counts were acquired for the top 5 most intense ions in the linear ion trap. […]

Assay [2] has as its system ICAM-4 (LW) phosphorylation. Kind of assay: 32P labeling, ICAM-4 immunoprecipitation and detection of phosphorylation in SS RBCs. Here is the method: Cells were then washed 4 times. ICAM-4 protein immunoprecipitation, and total and phospho-ICAM-4 detection were performed as previously described in detail.^4 To further confirm that the immunoprecipitates were specific for ICAM-4, anti-ICAM-4 mAb and the negative control immunoglobulin P3 were used to immunoprecipitate ICAM-4 from non-radiolabeled SS RBCs incubated in the presence or absence of epinephrine. Blots were then immunostained with anti-ICAM-4 mAb.

The test system of assay [3] is glycophorin A phosphorylation. In words: 32P labeling, glycophorin A immunoprecipitation and phosphorylation in SS RBCs. The text has this:
Glycophorin A phosphorylation and immunoprecipitation. […] Cells were then washed 4 times. […] Blots were immunostained with anti-glycophorin A mAb.

Assay [4] has as its system AA RBC membrane ghost phosphopeptides. In words: Label-free quantitative phosphoproteomic analysis of normal (AA) RBC membrane ghosts. The method, then:
as §1
as §2, with “Prior to LC-MS analysis, each sample was resuspended in 20 μL 2% acetonitrile, 0.1% TFA, 25 mM citric acid (pH 2.5).” left out
MS data from each phosphopeptide enriched sample was acquired on a Thermo LTQ-Orbitrap XL mass spectrometer operating in positive-ion mode with an electrospray voltage of 2.0 kV with real-time lockmass correction on ambiant polycyclodimethylsiloxane (m/z 445.120025) enabled. […] Each sample was analyzed four-times, one of which was used for additional qualitative identifications only and was not included in the quantitative analysis, with product ions above a threshold of 500 counts were acquired for the top 5 most intense ions in the linear ion trap. […]

The subject of assay [5] is ERK1/2 phosphorylation in SS RBCs. In words: ERK1/2 phosphorylation in SS RBCs, Western blot (phosphoERK normalized to total ERK). The method, then:
Aliquots of packed RBCs were treated with various reagents to affect cAMP signaling or protein phosphorylation. […] Treated RBCs were then washed 5 times with 4 ml PBS with Ca^2+ and Mg^2+. Normal RBCs were used as controls. Prior to adhesion assays, treated RBCs were labeled with PKH 26 red fluorescent cell linker kit (Sigma), following the manufacturer's instructions.
Treated packed RBCs were lysed with hypotonic buffer (5 mM Na2HPO4+1 mM EDTA+0.1% NaN3, pH 8) containing 2 mM phenylmethylsulphonylfluoride (PMSF, Sigma), phosphatase inhibitor cocktail (Sigma) and protease inhibitor cocktail (Sigma). Protein separation by polyacrylamide gel electrophoresis using equal amounts of total RBC membrane ghost proteins per lane, after correcting total protein measurements for residual hemoglobin content, and Western blot^19 using the appropriate Ab were then performed. Mouse 3T3/A31 fibroblast lysate was used as a ERK1/2 positive control for immunoblots. For total ERK1/2, membranes blotted with anti-phosphoERK Ab were stripped and reexposed to Western blotting using anti-ERK1/2 Ab. Bands were analyzed densitometrically using ImageJ software downloaded from the NIH website. PhosphoERK1/2 data were normalized according to total ERK1/2 and are presented as fold change in ERK phosphorylation.

Where [6] appears, read: SS RBCs vs SS RBCs treated with U0126.
The mark [7] stands for this setting: SS RBCs, epinephrine 30 min vs 1 min.
The mark [8] stands for this setting: epinephrine in the presence of SPI.

`N#CC(=C(/N)Sc1ccccc1N)/C(C#N)=C(\N)Sc1ccccc1N` [U0126]: the “change of Ser540/Ser542 doubly phosphorylated peptide within protein 4.1” value in assay [1] (SS RBCs treated with U0126) is reported as −1.7 fold. Also, in assay [1] (setting [6]), the “unique RBC membrane phosphopeptides significantly down-regulated” value came to 36 and the “unique phosphoproteins carrying the down-regulated phosphopeptides” value is listed as 22. For the same compound, the “effect on combined effect of epinephrine and SPI on ICAM-4 phosphorylation” value in assay [2] (SS RBCs preincubated with inhibitor) was “significantly decreased”. The “effect on combined effect of epinephrine and SPI on glycophorin A phosphorylation” value in assay [3] (SS RBCs pre-incubated with 10 μM U0126 for 1 h) is reported as “significantly decreased”. Moreover, the “effect on Ser540/Ser542 doubly phosphorylated peptide within protein 4.1” value in assay [4] (AA RBCs treated with U0126) is listed as “did not induce a decrease”. In assay [5] (SS RBCs), the “effect on forskolin-induced ERK1/2 phosphorylation” value is “prevented”. Moreover, the “effect on epinephrine-induced ERK1/2 phosphorylation” value in assay [5] (SS RBCs pre-incubated with inhibitor, then 20 nM epinephrine 1 min) was “significantly inhibited”. Further, in assay [5] (SS RBCs, 2 μg/ml PTx), the “effect on PTx-induced ERK phosphorylation” value is “blocked”.

For the compound `CNC[C@H](O)c1ccc(O)c(O)c1` [epinephrine], in assay [1] (setting [7]), the “change in phosphorylation of serine 310 within CAP1” value was −4.3 fold and the “change in phosphorylation of threonine 307 within CAP1” value is −1.4 fold. Also, the “ICAM-4 phosphorylation over sham-treated cells” value in assay [2] (epinephrine 1 min in the presence of SPI (FIG. 4F)) is recorded as 1.84±0.15 fold. Moreover, in assay [2] (epinephrine 30 min in the presence of SPI), the “ICAM-4 phosphorylation vs 1 min exposure” value is given as “significantly diminished”. Besides, the “increase in ICAM-4 phosphorylation over sham-treated SS RBCs” value in assay [2] (setting [8]) is on record as 7.4±1.07 fold. The “increase in glycophorin A phosphorylation over sham-treated SS RBCs” value in assay [3] (setting [8]) was determined as 2.93±0.35 fold. Also, the “change in phosphorylation of the CAP1 serine” value in assay [4] (AA RBCs, epinephrine 30 min vs 1 min) is on record as “+1.4 fold”. Besides, in assay [5], the “ERK phosphorylation vs 1 min exposure” value is given as “decreased”, the “ERK phosphorylation vs sham-treated” value is “markedly increased”, the “fold increase in ERK phosphorylation” value came out at 2.1±0.1 fold and the “increase in ERK phosphorylation above basal levels” value is reported as 2±0.17 fold. The “patients whose SS RBCs exhibited more than 1.5-fold elevation in ERK phosphorylation (responders)” value in assay [5] is 40%.

Source of the values: patent US10195204B2, “Methods of treating hemoglobinopathies” (DUKE UNIVERSITY, priority 2011, dated 2019).
